Mortality and pest or weed control data for 18 molecules are collected here from US9783532B2, “Molecules having certain pesticidal utilities, and intermediates, compositions, and processes related thereto” (Dow AgroSciences LLC, priority 2013, dated 2017).

The test system of assay [1] is Cabbage Looper (Trichoplusia ni) ("CL"). The assay is described as follows: Bioassay on cabbage looper (CL), 128-well diet tray assay. It counts as in vivo. To be noted: for mortality at 50 µg/cm2: 168 h, 50 μg/cm^2 on artificial diet, second instar CL larvae, 25° C., five to seven days, average of eight wells, read-out: CL % Control (or Mortality) rating; for pest or weed control at 50 µg/cm2: Table ABC (PC), activity rating class, read-out: CL (Biological Results, Insect species). The method, boiled down: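 Second-instar larvae (one to five per well) placed on artificial diet surface-treated with 50 μg/cm^2 compound in 90:10 acetone-water, dried before infestation. Held 25 °C, 14:10 light-dark for five to seven days; percent mortality scored per well and averaged over eight wells.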

Assay [2] deals with Beet Armyworm (Spodoptera exigua) ("BAW"). The assay is described as follows: Bioassay on beet armyworm (BAW), 128-well diet tray assay. The format is in vivo. To be noted: for mortality at 50 µg/cm2: 168 h, 50 μg/cm^2 on artificial diet, second instar BAW larvae, 25° C., five to seven days, average of eight wells, read-out: BAW % Control (or Mortality) rating; for pest or weed control at 50 µg/cm2: Table ABC (PC), activity rating class, read-out: BAW (Biological Results, Insect species). Put shortly: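 Second-instar larvae (one to five per well) were placed on artificial diet surface-treated with 50 μg/cm^2 compound applied in 90:10 acetone-water and dried, eight wells per compound. Held at 25° C., 14:10 light-dark for five to seven days; percent mortality was scored per well and averaged over the eight wells.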

For orientation: mortality means the share of the test organisms that died. Take `Cc1ccc(N2C(=O)CS/C2=N\C(=O)NCCCc2cccc(-c3ncn(-c4ccc(OC(F)(F)F)cc4)n3)c2)c(C(C)C)c1` [P128, (Z)-1-(3-(2-isopropyl-4-methylphenyl)-4-oxothiazolidin-2-ylidene)-3-(3-(3-(1-(4-(trifluoromethoxy)phenyl)-1H-1,2,4-triazol-3-yl)phenyl)propyl)urea]: the mortality at 50 µg/cm2 in assay [1] and in assay [2] was 50 to 100% throughout.
For the molecule `CC(C)c1cc(F)ccc1N1C(=O)CS/C1=N\C(=O)NCCCc1cccc(-c2ncn(-c3ccc(OC(F)(F)F)cc3)n2)c1` [P129, (Z)-1-(3-(4-fluoro-2-isopropylphenyl)-4-oxothiazolidin-2-ylidene)-3-(3-(3-(1-(4-(trifluoromethoxy)phenyl)-1H-1,2,4-triazol-3-yl)phenyl)propyl)urea], the mortality at 50 µg/cm2 in assay [1] and in assay [2] was 50 to 100% in each case.
As for `COc1ccc(N2C(=O)CS/C2=N\C(=O)NCCCc2cccc(-c3ncn(-c4ccc(OC(F)(F)F)cc4)n3)c2)c(C)c1` [P131, (Z)-1-(3-(4-methoxy-2-methylphenyl)-4-oxothiazolidin-2-ylidene)-3-(3-(3-(1-(4-(trifluoromethoxy)phenyl)-1H-1,2,4-triazol-3-yl)phenyl)propyl)urea], the mortality at 50 µg/cm2 in assay [1] and in assay [2] was 50 to 100% throughout.
Regarding `Cc1ccccc1N1C(=O)CS/C1=N\C(=O)NCCCCc1cccc(-c2ncn(-c3ccc(OC(F)(F)F)cc3)n2)c1` [P170, (Z)-1-(4-oxo-3-(o-tolyl)thiazolidin-2-ylidene)-3-(4-(3-(1-(4-(trifluoromethoxy)phenyl)-1H-1,2,4-triazol-3-yl)phenyl)butyl)urea], the mortality at 50 µg/cm2 in assay [1] was 50 to 100%; in assay [2], 0%.
For `CCc1ccccc1N1C(=O)CS/C1=N\C(=O)NCCCCc1cccc(-c2ncn(-c3ccc(OC(F)(F)F)cc3)n2)c1` [P171, (Z)-1-(3-(2-ethylphenyl)-4-oxothiazolidin-2-ylidene)-3-(4-(3-(1-(4-(trifluoromethoxy)phenyl)-1H-1,2,4-triazol-3-yl)phenyl)butyl)urea], the mortality at 50 µg/cm2 in assay [1] and in assay [2] was 50 to 100% throughout.
Consider `CC(C)c1ccccc1N1C(=O)CS/C1=N\C(=O)NCCCCc1cccc(-c2ncn(-c3ccc(OC(F)(F)F)cc3)n2)c1` [P172, (Z)-1-(3-(2-isopropylphenyl)-4-oxothiazolidin-2-ylidene)-3-(4-(3-(1-(4-(trifluoromethoxy)phenyl)-1H-1,2,4-triazol-3-yl)phenyl)butyl)urea], for which the mortality at 50 µg/cm2 in assay [1] and in assay [2] was 50 to 100% throughout.
`Cc1ccc(C(C)C)c(N2C(=O)CS/C2=N\C(=O)NCCCCc2cccc(-c3ncn(-c4ccc(OC(F)(F)F)cc4)n3)c2)c1` [P176, (Z)-1-(3-(2-isopropyl-5-methylphenyl)-4-oxothiazolidin-2-ylidene)-3-(4-(3-(1-(4-(trifluoromethoxy)phenyl)-1H-1,2,4-triazol-3-yl)phenyl)butyl)urea]: the mortality at 50 µg/cm2 in assay [1] and in assay [2] was 50 to 100% each time.
Take `CCc1cccc(C)c1N1C(=O)CS/C1=N\C(=O)NCCCCc1cccc(-c2ncn(-c3ccc(OC(F)(F)F)cc3)n2)c1` [P179, (Z)-1-(3-(2-ethyl-6-methylphenyl)-4-oxothiazolidin-2-ylidene)-3-(4-(3-(1-(4-(trifluoromethoxy)phenyl)-1H-1,2,4-triazol-3-yl)phenyl)butyl)urea]: the mortality at 50 µg/cm2 in assay [1] and in assay [2] was 0% throughout.
In the case of `Cc1ccc(N2C(=O)CS/C2=N\C(=O)NCCCCc2cccc(-c3ncn(-c4ccc(OC(F)(F)F)cc4)n3)c2)c(C(C)C)c1` [P180, (Z)-1-(3-(2-isopropyl-4-methylphenyl)-4-oxothiazolidin-2-ylidene)-3-(4-(3-(1-(4-(trifluoromethoxy)phenyl)-1H-1,2,4-triazol-3-yl)phenyl)butyl)urea], the mortality at 50 µg/cm2 in assay [1] was 50 to 100%; in assay [2], 0%.
With `CC(C)c1cc(F)ccc1N1C(=O)CS/C1=N\C(=O)NCCCCc1cccc(-c2ncn(-c3ccc(OC(F)(F)F)cc3)n2)c1` [P181], the mortality at 50 µg/cm2 in assay [1] and in assay [2] was 50 to 100% throughout.
For the molecule `COc1ccc(C(C)C)c(N2C(=O)CS/C2=N\C(=O)NCCCCc2cccc(-c3ncn(-c4ccc(OC(F)(F)F)cc4)n3)c2)c1` [P182, (Z)-1-(3-(2-isopropyl-5-methoxyphenyl)-4-oxothiazolidin-2-ylidene)-3-(4-(3-(1-(4-(trifluoromethoxy)phenyl)-1H-1,2,4-triazol-3-yl)phenyl)butyl)urea], the mortality at 50 µg/cm2 in assay [1] and in assay [2] was 50 to 100% in each case.
Consider `CCC(CNC(=O)/N=C1\SCC(=O)N1c1cc(C)ccc1C(C)C)c1ccc(-c2ncn(-c3ccc(OC(F)(F)F)cc3)n2)cc1` (stereo not drawn) [P364, (Z)-1-(3-(2-isopropyl-5-methylphenyl)-4-oxothiazolidin-2-ylidene)-3-(2-(4-(1-(4-(trifluoromethoxy)phenyl)-1H-1,2,4-triazol-3-yl)phenyl)butyl)urea], for which the mortality at 50 µg/cm2 in assay [1] and in assay [2] was 50 to 100% in each case.
In the case of `Cc1ccccc1NC(=S)NC(=O)NCc1ccc(-c2ncn(-c3ccc(OC(F)(F)F)cc3)n2)cc1` [PC1, 1-(o-tolylcarbamothioyl)-3-[[4-[1-[4-(trifluoromethoxy)phenyl]-1H-1,2,4-triazol-3-yl]phenyl]methyl]urea], the pest or weed control at 50 µg/cm2 in assay [1] and in assay [2] was 50 to 100% in each case.
On to `CC(C)c1cc(F)ccc1NC(=S)NC(=O)NCc1ccc(-c2ncn(-c3ccc(OC(F)(F)F)cc3)n2)cc1` [PC3, 1-[(4-fluoro-2-isopropyl-phenyl)carbamothioyl]-3-[[4-[1-[4-(trifluoromethoxy)phenyl]-1H-1,2,4-triazol-3-yl]phenyl]methyl]urea], for which the pest or weed control at 50 µg/cm2 in assay [1] and in assay [2] was 50 to 100% throughout.
`Cc1ccc(NC(=S)NC(=O)NCc2ccc(-c3ncn(-c4ccc(OC(F)(F)F)cc4)n3)cc2)c(C(C)C)c1` [PC5, 1-[(2-isopropyl-4-methyl-phenyl)carbamothioyl]-3-[[4-[1-[4-(trifluoromethoxy)phenyl]-1H-1,2,4-triazol-3-yl]phenyl]methyl]urea]: the pest or weed control at 50 µg/cm2 in assay [1] and in assay [2] was 50 to 100% throughout.
Turning to `CCc1ccc(C)cc1NC(=S)NC(=O)NCc1ccc(-c2ncn(-c3ccc(OC(F)(F)F)cc3)n2)cc1` [PC7], the pest or weed control at 50 µg/cm2 in assay [1] and in assay [2] was 50 to 100% throughout.
For the molecule `CCCc1ccc(C)cc1NC(=S)NC(=O)NCc1ccc(-c2ncn(-c3ccc(OC(F)(F)F)cc3)n2)cc1` [PC8, 1-[(5-methyl-2-propyl-phenyl)carbamothioyl]-3-[[4-[1-[4-(trifluoromethoxy)phenyl]-1H-1,2,4-triazol-3-yl]phenyl]methyl]urea], the pest or weed control at 50 µg/cm2 in assay [1] and in assay [2] was 50 to 100% each time.
`Cc1ccc(NC(=S)NC(=O)NCc2ccc(-c3ncn(-c4ccc(C(F)(F)F)cc4)n3)cc2)c(C(C)C)c1` [PC15, 1-[(2-isopropyl-4-methyl-phenyl)carbamothioyl]-3-[[4-[1-[4-(trifluoromethyl)phenyl]-1,2,4-triazol-3-yl]phenyl]methyl]urea]: the pest or weed control at 50 µg/cm2 in assay [1] and in assay [2] was 50 to 100% throughout.
